Measured values taken from PMC12523147, “Thyroid hormone receptor beta signaling is a targetable driver of prostate cancer growth” (Molecular Cancer, 2025).

Molecular target: T1, thyroid hormone receptor β (TRβ) (Homo sapiens, UniProt P10828)
T1 construct: gene THRB
Assay: biochemical

T1 sequence (P10828 whole entry): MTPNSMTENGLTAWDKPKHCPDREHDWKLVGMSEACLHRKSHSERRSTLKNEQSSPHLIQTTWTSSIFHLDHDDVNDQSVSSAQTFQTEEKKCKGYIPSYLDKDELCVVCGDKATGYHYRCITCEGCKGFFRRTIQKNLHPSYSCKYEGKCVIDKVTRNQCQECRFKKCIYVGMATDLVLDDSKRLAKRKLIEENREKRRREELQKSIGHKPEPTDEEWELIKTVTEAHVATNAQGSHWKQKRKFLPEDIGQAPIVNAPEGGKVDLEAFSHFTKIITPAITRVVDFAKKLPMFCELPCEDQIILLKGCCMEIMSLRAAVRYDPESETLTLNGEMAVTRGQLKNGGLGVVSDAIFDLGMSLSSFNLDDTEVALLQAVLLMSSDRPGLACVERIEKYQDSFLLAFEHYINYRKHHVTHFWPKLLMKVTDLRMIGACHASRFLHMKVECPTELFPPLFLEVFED

Ki: 1.31 nM
Structure (SMILES): Cc1cc(OCC(=O)O)cc(C)c1Cc1cc(C#Cc2ccc([N+](=O)[O-])cc2)c(O)c(C(C)C)c1 [NH-3]
